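Protocol summary: plate cells (96-well), add compound at 5 concentrations, incubate 48 h, interpolate endpoints linearly. At the GI50, growth is halved.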 The source made the active and inactive calls. No stated cut-off is given here; in the data, active = GI50 up to about 1.1 µM and inactive = higher. Where a SMILES comes first, the peptide text is derived from it. [ ]: non-standard residue; d: D form. Phe(F5) = N[CH](Cc1c(F)c(F)c(F)c(F)c1F)C(=O)O
What was measured:
Test in all cases: NCI tumour cell line growth inhibition, 48 h
RXF 631 = test system: RXF 631
LXFL 529 = test system: LXFL 529
SNB-78 = test system: SNB-78
DMS-273 = test system: DMS-273
DMS-114 = test system: DMS-114
M19-MEL = test system: M19-MEL
HOP-18 = test system: HOP-18
XF498 = test system: XF498
DLD-1 = test system: DLD-1

SMILES	GI50 (RXF 631)	GI50 (LXFL 529)	GI50 (SNB-78)	GI50 (DMS-273)	GI50 (DMS-114)	GI50 (M19-MEL)	GI50 (HOP-18)	GI50 (XF498)	GI50 (DLD-1)
CCC(Oc1ccc(OC)c2ccccc(=O)c12)C(=O)O (centres undefined)	> 100 µM (inactive)	> 100 µM (inactive)	> 100 µM (inactive)	> 100 µM (inactive)	> 100 µM (inactive)	> 100 µM (inactive)			
CC(O)CN1C(=O)NC(Cc2ccccc2)C1=O (centres undefined)		> 100 µM (inactive)	> 100 µM (inactive)	> 100 µM (inactive)	> 100 µM (inactive)		> 100 µM (inactive)	> 100 µM (inactive)	> 100 µM (inactive)
CC(=O)Nc1cc(N(CCOS(C)(=O)=O)CCOS(C)(=O)=O)ccc1N=O		> 100 µM (inactive)		> 100 µM (inactive)	> 100 µM (inactive)	> 100 µM (inactive)		> 100 µM (inactive)	> 100 µM (inactive)
O=C1Nc2ccccc2C1(O)C/C(=N/O)c1ccc2ccccc2c1 (centres undefined)	29.7 µM (inactive)	91.2 µM (inactive)	60.1 µM (inactive)		64.6 µM (inactive)	45.5 µM (inactive)	> 100 µM (inactive)	93.3 µM (inactive)	> 100 µM (inactive)
Cc1cc2c(c(C(N)=O)c1C)-c1ccccc1C2=O	> 100 µM (inactive)	> 100 µM (inactive)	> 100 µM (inactive)	> 100 µM (inactive)	> 100 µM (inactive)	> 100 µM (inactive)	> 100 µM (inactive)		> 100 µM (inactive)
COc1cccc(SSc2cccc(OC)c2C(=O)O)c1C(=O)O	> 100 µM (inactive)	> 100 µM (inactive)	> 100 µM (inactive)	> 100 µM (inactive)	> 100 µM (inactive)	> 100 µM (inactive)	> 100 µM (inactive)	> 100 µM (inactive)	> 100 µM (inactive)
CCOC(=O)C(C)(NC(=O)c1ccc(NCc2ccc3nc(NC(=O)c4ccccc4)nc(NC(=O)c4ccccc4)c3c2)cc1)C(=O)OCC	12.2 µM (inactive)		9.23 µM (inactive)	9.23 µM (inactive)	16.8 µM (inactive)	8.93 µM (inactive)	37.8 µM (inactive)		15.6 µM (inactive)
COc1ccc(/C=C2/C(=O)N(C(=O)c3ccc(Cl)cc3)N=C2C)cc1OC		> 100 µM (inactive)	> 100 µM (inactive)		> 100 µM (inactive)	> 100 µM (inactive)		> 100 µM (inactive)	> 100 µM (inactive)
CC(=O)NNc1nc(C)c(C(=O)NNC(=O)C(=O)Nc2c([N+](=O)[O-])ccc(C)c2C)s1		65.2 µM (inactive)	> 100 µM (inactive)	> 100 µM (inactive)	> 100 µM (inactive)	> 100 µM (inactive)		> 100 µM (inactive)	> 100 µM (inactive)
COc1ccccc1/C=N/N=C(\N)NO		3.3 µM (inactive)	> 100 µM (inactive)		5.78 µM (inactive)	19.8 µM (inactive)	48.9 µM (inactive)		23.8 µM (inactive)
COc1cc(C2C(C(=O)O)=C(C)Oc3cc4c(cc32)OCO4)cc(OC)c1OC (centres undefined)	36.1 µM (inactive)		50.4 µM (inactive)	13.7 µM (inactive)	16.2 µM (inactive)	30.8 µM (inactive)	28.8 µM (inactive)	42.2 µM (inactive)	29 µM (inactive)
COc1ccc(S(=O)(=O)N(C)CC(=O)O)cc1	> 100 µM (inactive)	> 100 µM (inactive)		> 100 µM (inactive)		> 100 µM (inactive)	> 100 µM (inactive)	> 100 µM (inactive)	> 100 µM (inactive)
O=C(CNc1ccc2c(=S)c3ccccc3[nH]c2c1)Nc1ccccc1-c1ccccc1NC(=O)CNc1ccc2c(=S)c3ccccc3[nH]c2c1		7.45 µM (inactive)	32.9 µM (inactive)	> 46 µM (inactive)	17.1 µM (inactive)	> 39.2 µM (inactive)	16.1 µM (inactive)	19.1 µM (inactive)	11 µM (inactive)
CC(=O)O.CN1CCN(CN2C(=O)C3C4C=CC(C3C2=O)C2C3C(=O)N(CN5CCN(C)CC5)C(=O)C3C42)CC1 (centres undefined)		18.1 µM (inactive)			20.1 µM (inactive)				19.1 µM (inactive)
CCN(CC)CCNc1c2ccccc2nc2cccc([N+](=O)[O-])c12	0.0317 µM (active)	0.0211 µM (active)	0.0993 µM (active)	0.0358 µM (active)	0.0241 µM (active)	0.0352 µM (active)		0.0193 µM (active)	0.0225 µM (active)
CN(c1ccccc1)C(c1ccccc1)C(O)c1ccccc1 (centres undefined)	18.8 µM (inactive)	21 µM (inactive)	22.6 µM (inactive)	18.7 µM (inactive)	20.9 µM (inactive)	23.1 µM (inactive)	14.9 µM (inactive)		23.9 µM (inactive)
COc1ccccc1N1C(=O)/C(=C/c2ccc(N(CCC#N)CCC#N)cc2C)N=C1c1cc([N+](=O)[O-])ccc1Cl		> 100 µM (inactive)	> 100 µM (inactive)	> 100 µM (inactive)	> 100 µM (inactive)	24.2 µM (inactive)	> 100 µM (inactive)	> 100 µM (inactive)	
COC(=O)C(CC(C)C)NC(=O)C(Cc1c[nH]cn1)NC(=O)CNC(=O)C(NC(=O)C(C)NC(=O)C(Cc1c[nH]c2ccccc12)NC(=O)C(CCC(=O)O)NC(=O)C(N)Cc1c(F)c(F)c(F)c(F)c1F)C(C)C (centres undefined) (H-[Phe(F5)]EWAVGHL-OMe; configuration not given here)		> 100 µM (inactive)	> 100 µM (inactive)	> 100 µM (inactive)	> 100 µM (inactive)	> 100 µM (inactive)	> 100 µM (inactive)	> 100 µM (inactive)	> 100 µM (inactive)
Cc1ccc(S(=O)(=O)OC2CC=CC2)cc1		> 100 µM (inactive)	> 100 µM (inactive)	> 100 µM (inactive)	> 100 µM (inactive)	> 100 µM (inactive)	> 100 µM (inactive)	> 100 µM (inactive)	> 100 µM (inactive)
CCN(CC)CCN1C(=O)CC2[C@@H]3CCc4cc(OC)ccc4C3CC[C@]2(C)C1=O (some centres undefined)		16.4 µM (inactive)	28.5 µM (inactive)			18.7 µM (inactive)			
NCCCC(N)(C(=O)O)C(F)F (centres undefined) [EFLORNITHINE]	> 100 µM (inactive)	> 100 µM (inactive)	> 5000 µM (inactive)	1220 µM (inactive)	> 5000 µM (inactive)	> 3450 µM (inactive)	> 50 µM (inactive)		> 3160 µM (inactive)
CCc1cc(CCC(=O)Nc2ccccc2[N+](=O)[O-])nc(S)n1	> 100 µM (inactive)	> 100 µM (inactive)	> 100 µM (inactive)		> 100 µM (inactive)	> 100 µM (inactive)	> 100 µM (inactive)		> 100 µM (inactive)
O=CN/C=C/c1cc(O)ccc1O [ERBSTATIN]		11.6 µM (inactive)	19 µM (inactive)	77.1 µM (inactive)	17.6 µM (inactive)	13.3 µM (inactive)	> 40.6 µM (inactive)	19.8 µM (inactive)	16 µM (inactive)
c1ccc2c(c1)[Se]c1ccccc1[Se]2		61.4 µM (inactive)	30.5 µM (inactive)	> 100 µM (inactive)	67 µM (inactive)	> 100 µM (inactive)	4.92 µM (inactive)	> 100 µM (inactive)	53.8 µM (inactive)
